Source: PubChem BioAssay (NCI)
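Cells were grown in 96-well plates and exposed to each compound for 48 hours at five concentrations; endpoints were interpolated linearly between bracketing concentrations, or set to the highest concentration if not reached. Here, GI50 denotes the concentration required for 50% inhibition of growth. TGI denotes the concentration required for complete inhibition of growth.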

System: MDA-MB-468 breast
Assay: DTP human tumour cell line panel, 48 h

CC[C@@H](C)/C=C(C)/C=C/C(=O)c1c(O)c(-c2ccc(O)cc2)cn(O)c1=O
GI50: 167 nM | TGI: 624 nM
